For assay [1], the system named is E. coli RNase P RNA, M1 RNA. Kind of assay: Inhibition of bacterial RNase P activity, IC50 determination (cleavage of pATSerUG by M1 RNA). The class given is biochemical. As to conditions: NI = No inhibition.
Assay [2] has as its system Escherichia coli (ATCC25922). The experiment in a line: MIC, broth microdilution (CLSI), Escherichia coli ATCC25922. For orientation: Dilution methods test growth across graded concentrations, often in twofold steps.
For assay [3], the system named is Staphylococcus aureus (ATCC25923). Kind of assay: MIC, broth microdilution (CLSI), Staphylococcus aureus ATCC25923.
In assay [4] the test system is Staphylococcus aureus subsp. aureus (ATCC29213). The experiment in a line: MIC, broth microdilution (CLSI), Staphylococcus aureus subsp. aureus ATCC29213. In kind it is cell-based. As to conditions: ATCC29213, Table 15, read-out: S. aureus ("wound") (MIC).
Setting [5] is: ATCC25922, read-out: E. coli MIC, Table 15, NI = No inhibition.
The mark [6] stands for this setting: ATCC25923, read-out: S. aureus ("Clinical") MIC.
Setting [7] is: ATCC25922, read-out: E. coli MIC.

≈ marks a conversion by molar mass, not a printed value. Structures can show the parent of a compound that is named as a salt. Where two headings read alike, the source gives them in different places.

The values below come from patent US11130741B2 (Bioimics AB, priority 2016, dated 2021).

For the compound `NCCN1CCCC(Nc2cc(C(F)(F)F)cc3c2Nc2ccccc2S3)CC1` (stereo not shown) [compound 225, N-(1-(2-aminoethyl)azepan-4-yl)-3-(trifluoromethyl)-10H-phenothiazin-1-amine], the IC50 – broadly, the midpoint of a concentration-inhibition curve – in assay [1] was more than 100 µM. Also, the figures for the minimum inhibitory concentration (MIC) in assay [2] (setting [5]) and in assay [3] (setting [6]) were 7 µg/mL (≈ 16.6 µM) and 3 µg/mL (≈ 7.1 µM), respectively.
`NCCN1CCC(c2nc3cc(C(F)(F)F)cc4c3n2-c2ccccc2S4)CC1` [compound 239, 2-(4-(4-(Trifluoromethyl)imidazo[4,5,1-kl]phenothiazin-1-yl)piperidin-1-yl)ethanamine] came in with an IC50 in assay [1] of 17 µM. The minimal inhibitory concentration (MIC) (in general, the lowest concentration found to suppress growth) in assay [2] (setting [5]) is 13 µg/mL (≈ 31.1 µM); in assay [3] (setting [6]), 7 µg/mL (≈ 16.7 µM).
The compound `O=C(Nc1cc(C(F)(F)F)cc2c1Nc1ccccc1S2)[C@H]1CCCNC1` [compound 106, N-(3-(trifluoromethyl)-10H-phenothiazin-1-yl)piperidine-3-carboxamide] displayed an IC50 in assay [1] of more than 100 µM. The minimum inhibitory concentration (MIC) amounted to 64 µg/mL (≈ 163 µM) in assay [2] (setting [5]) and 32 µg/mL (≈ 81.3 µM) in assay [3] (setting [6]).
Consider `Nc1cc(C(F)(F)F)cc2c1Nc1ccc(-c3cc4ccccc4[nH]3)cc1S2` [compound 205, 7-(1H-indol-2-yl)-3-(trifluoromethyl)-10H-phenothiazin-1-amine], for which, in assay [1], half-maximal inhibition (IC50) required 364 µM. Also, the MIC in assay [3] (setting [6]) was determined as 25 µg/mL (≈ 62.9 µM).
Turning to `NC(Cc1c[nH]c2ccccc12)C(=O)Nc1cc(C(F)(F)F)cc2c1Nc1ccccc1S2` (stereo not shown) [compound 253, 2-amino-3-(1H-indol-3-yl)-N-(3-(trifluoromethyl)-10H-phenothiazin-1-yl)propanamide], in assay [3] (setting [6]), the MIC worked out at 2 µg/mL (≈ 4.27 µM).
In assay [1], `CN(C)CCCN1c2ccccc2Sc2cc(Cl)cc(N)c21` [compound 89, 3-chloro-10-(3-(dimethylamino)propyl)-10H-phenothiazin-1-amine] displayed an IC50 of more than 100 µM. The MIC in assay [2] (setting [5]) is more than 100 µg/mL; in assay [3] (setting [6]) it was 85 µg/mL (≈ 255 µM).
In the case of `NC1CCCC(CNc2cc(C(F)(F)F)cc3c2Nc2ccccc2O3)C1` (stereo not shown) [compound 164, N-((3-aminocyclohexyl)methyl)-3-(trifluoromethyl)-10H-phenoxazin-1-amine], the MIC was 97 µg/mL (≈ 257 µM) in assay [2] (setting [5]) and 24 µg/mL (≈ 63.6 µM) in assay [3] (setting [6]).
For `NCCN1c2ccccc2Sc2cc(-c3cc4ccccc4[nH]3)ccc21` [compound 213, 2-(3-(1H-indol-2-yl)-10H-phenothiazin-10-yl)ethanamine], in that order: 23 µg/mL (≈ 64.3 µM) and 3 µg/mL (≈ 8.39 µM).
`NCC(CCl)Nc1cc(C(F)(F)F)cc2c1Nc1ccccc1S2` (stereo not shown) [compound 178, 3-chloro-N2-(3-(trifluoromethyl)-10H-phenothiazin-1-yl)propane-1,2-diamine]: the MIC is 48 µg/mL (≈ 128 µM) in assay [2] (setting [7]) and 6 µg/mL (≈ 16.1 µM) in assay [3] (ATCC25923, read-out: S. aureus ("Clinical") MIC, Table 15).
As for `Cc1c(-c2ccc3c(c2)Sc2ccccc2N3CCCN(C)C)[nH]c2ccccc12` [compound 198, N,N-dimethyl-3-(3-(3-methyl-1H-indol-2-yl)-10H-phenothiazin-10-yl)propan-1-amine], the MIC in assay [3] (setting [6]) was determined as 3 µg/mL (≈ 7.25 µM).
In the case of `NCCNCCN1CCC(Nc2cc(C(F)(F)F)cc3c2Nc2ccccc2S3)CC1` [compound 219, N1-(2-(4-((3-(trifluoromethyl)-10H-phenothiazin-1-yl)amino)piperidin-1-yl)ethyl)ethane-1,2-diamine], the MIC came out at 14 µg/mL (≈ 31 µM) in assay [2] (setting [5]) and 7 µg/mL (≈ 15.5 µM) in assay [3] (setting [6]).
`NC1CCCC(CC(=O)Nc2cc(C(F)(F)F)cc3c2Nc2ccccc2S3)C1.O=C(O)C(F)(F)F` (stereo not shown) [compound 165, 2-(3-aminocyclohexyl)-N-(3-(trifluoromethyl)-10H-phenothiazin-1-yl)acetamide 2,2,2-trifluoroacetate]: the values for the MIC in assay [2] (setting [5]) and in assay [3] (setting [6]) were 34 µg/mL and 17 µg/mL, respectively.
In the case of `OCC1CCC(Nc2cc(C(F)(F)F)cc3c2Nc2ccccc2S3)CC1` (stereo not shown) [compound 192, (4-((3-(trifluoromethyl)-10H-phenothiazin-1-yl)amino)cyclohexyl) methanol], the MIC in assay [3] (setting [6]) amounted to 6 µg/mL (≈ 15.2 µM).
Same read-out and setting: in the case of `CN(C)CCCN1c2ccc(-c3cc4ccccc4[nH]3)cc2Sc2cc([N+](=O)[O-])ccc21` [compound 241, 3-(3-(1H-indol-2-yl)-7-nitro-10H-phenothiazin-10-yl)-N,N-dimethylpropan-1-amine] it was 4 µg/mL (≈ 9 µM).
Consider `NCCN1CCOC[C@H]1C(=O)Nc1cc(C(F)(F)F)cc2c1Nc1ccccc1S2.O=C(O)C(F)(F)F` [compound 157, (S)-4-(2-aminoethyl)-N-(3-(trifluoro-methyl)-10H-phenothiazin-1-yl)morpholine-3-carboxamide 2,2,2-trifluoroacetate], for which the MIC was more than 100 µg/mL in assay [2] (setting [5]) and 71 µg/mL in assay [3] (setting [6]).
Regarding `FC(F)(F)c1cc(NC2CCNCC2)c2c(c1)Sc1cc(-c3cc4ccccc4[nH]3)ccc1N2` [compound 243, 7-(1H-indol-2-yl)-N-(piperidin-4-yl)-3-(trifluoromethyl)-10H-phenothiazin-1-amine], the IC50 in assay [1] was 39 µM. Besides, the MIC in assay [3] (setting [6]) was found to be 15 µg/mL (≈ 31.2 µM).
In the case of `CN(C)C1CCN(c2ccc3c(c2)Sc2cc(C(F)(F)F)cc(NC4CCN(CCN)CC4)c2N3)CC1.Cl.Cl` [compound 295, N-(1-(2-aminoethyl)piperidin-4-yl)-7-(4-(dimethylamino)piperidin-1-yl)-3-(trifluoromethyl)-10H-phenothiazin-1-amine hydrochloride], the 50% inhibitory concentration (IC50) in assay [1] was determined as 21 µM. The minimum inhibitory concentration (MIC) in assay [4] amounted to 32 µg/mL; in assay [2] (setting [5]) it was 128 µg/mL.
As for `NC1CC(C(=O)Nc2cc(C(F)(F)F)cc3c2Nc2ccccc2S3)CCN1` (stereo not shown) [compound 139, 2-amino-N-(3-(trifluoromethyl)-10H-phenothiazin-1-yl)piperidine-4-carboxamide], the minimal inhibitory concentration (MIC) is more than 100 µg/mL in assay [2] (setting [5]) and 52 µg/mL (≈ 127 µM) in assay [3] (setting [6]).
In assay [1], `NCCCN1c2ccc(N3CCN(CCN)CC3)cc2Sc2cc(C(F)(F)F)ccc21` [compound 266, 3-(3-(4-(2-aminoethyl)piperazin-1-yl)-7-(trifluoromethyl)-10H-phenothiazin-10-yl)propan-1-amine hydrochloride] returned an IC50 of 31 µM. In addition, the results for the MIC in assay [4] and in assay [2] (setting [7]) were 16 µg/mL and 64 µg/mL, respectively.
With `NCCN1CCC(Nc2cc(C(F)(F)F)cc3c2Nc2ncccc2S3)CC1` [compound 268, N-(1-(2-aminoethyl)piperidin-4-yl)-7-(trifluoromethyl)-10H-benzo[b] pyrido[2,3-e] [1,4]thiazin-9-amine], inhibition in assay [1] was half-maximal at 31 µM (IC50). The MIC in assay [4] is 8 µg/mL (≈ 19.5 µM); in assay [2] (setting [5]) it was 4 µg/mL (≈ 9.77 µM).
With `CN(C)CCCN1c2ccccc2Sc2cc(-c3cc4cc(C#N)ccc4[nH]3)ccc21.O=C(O)C(F)(F)F` [compound 151, 2-(10-(3-(dimethylamino)propyl)-10H-phenothiazin-3-yl)-1H-indole-5-carbonitrile 2,2,2-trifluoroacetate salt], the MIC is more than 100 µg/mL in assay [2] (setting [5]) and 3 µg/mL in assay [3] (setting [6]).
`Cl.NCCNCCCNc1cc(C(F)(F)F)cc2c1Nc1ccc(Br)cc1S2` [compound 298, N1-(2-aminoethyl)-N3-(7-bromo-3-(trifluoromethyl)-10H-phenothiazin-1-yl)propane-1,3-diamine] yielded an IC50 in assay [1] of 14 µM. The MIC in assay [4] and in assay [2] (setting [5]) was 8 µg/mL throughout.
Take `NC1CCCCC1C(=O)Nc1cc(C(F)(F)F)cc2c1Nc1ccccc1S2` (stereo not shown) [compound 113, 2-amino-N-(3-(trifluoromethyl)-10H-phenothiazin-1-yl)cyclohexane-carboxamide]: the results for the MIC in assay [2] (setting [5]) and in assay [3] (setting [6]) were more than 100 µg/mL and 7 µg/mL (≈ 17.2 µM), respectively.
In assay [1], `CN(C)C1CCN(c2ccc3c(c2)Sc2cc(C(F)(F)F)cc(NC4CCN(CCN)CC4)c2N3)C1.Cl.Cl` (stereo not shown) [compound 299, N-(1-(2-aminoethyl)piperidin-4-yl)-7-(3-(dimethylamino)pyrrolidin-1-yl)-3-(trifluoromethyl)-10H-phenothiazin-1-amine hydrochloride] displayed an IC50 of 6.8 µM. Moreover, the MIC in assay [4] was 8 µg/mL; in assay [2] (setting [5]) it was 32 µg/mL.
For `NCCN1CCC(Nc2cc(C(F)(F)F)cc3c2Nc2ccccc2S3)C1` (stereo not shown) [compound 228, N-(1-(2-aminoethyl)pyrrolidin-3-yl)-3-(trifluoromethyl)-10H-phenothiazin-1-amine], the MIC in assay [2] (setting [5]) came out at 13 µg/mL (≈ 33 µM); in assay [3] (setting [6]), 6 µg/mL (≈ 15.2 µM).
For the compound `COc1ccc2c(c1)Sc1cc(-c3cc4ccccc4[nH]3)ccc1N2CCCN(C)C` [compound 254, 3-(3-(1H-indol-2-yl)-7-methoxy-10H-phenothiazin-10-yl)-N,N-dimethylpropan-1-amine], the MIC in assay [3] (setting [6]) stood at 2 µg/mL (≈ 4.66 µM).
The compound `N#Cc1ccc2c(c1)Sc1cc(N3CCN(CCN)CC3)ccc1N2CCCN` [compound 292, 7-(4-(2-aminoethyl)piperazin-1-yl)-10-(3-aminopropyl)-10H-phenothiazine-3-carbonitrile trifluoro acetic acid] came in with an IC50 in assay [1] of 140 µM. Further, the results for the MIC in assay [4] and in assay [2] (setting [7]) were 128 µg/mL (≈ 313 µM) and more than 128 µg/mL, respectively.
In the case of `NCCC1CCC(CNc2cc(C(F)(F)F)cc3c2Nc2ccccc2S3)CC1` (stereo not shown) [compound 179, N-((4-(2-aminoethyl)cyclohexyl)methyl)-3-(trifluoromethyl)-10H-phenothiazin-1-amine], the MIC stood at 12 µg/mL (≈ 28.5 µM) in assay [2] (setting [5]) and 3 µg/mL (≈ 7.12 µM) in assay [3] (setting [6]).
In turn, `CC1CCCCN1c1ccc2c(c1)Sc1cc(C(F)(F)F)cc(NC3CCN(CCN)CC3)c1N2.Cl.Cl.Cl` (stereo not shown) [compound 314, N-(1-(2-aminoethyl)piperidin-4-yl)-7-(2-methyl-piperidin-1-yl)-3-(trifluoromethyl)-10H-phenothiazin-1-amine hydrochloride] yielded an IC50 in assay [1] of 30 µM. The MIC in assay [4] came out at 4 µg/mL; in assay [2] (setting [5]), 8 µg/mL.
As for `CC1(C)CCN(c2ccc3c(c2)Sc2cc(C(F)(F)F)cc(NC4CCN(CCN)CC4)c2N3)C1.Cl` [compound 332, N-(1-(2-aminoethyl)piperidin-4-yl)-7-(3,3-dimethyl-pyrrolidin-1-yl)-3-(trifluoromethyl)-10H-phenothiazin-1-amine hydrochloride], half-maximal inhibition in assay [1] (IC50) was put at 4.1 µM. For the same compound, the MIC was found to be 1 µg/mL in assay [4] and 8 µg/mL in assay [2] (setting [5]).
